For orientation: EC50 means the concentration giving half of the maximal effect. A low value points to an effect from little substance.

Sequence of GLP-1 Receptor (P43220 24-463): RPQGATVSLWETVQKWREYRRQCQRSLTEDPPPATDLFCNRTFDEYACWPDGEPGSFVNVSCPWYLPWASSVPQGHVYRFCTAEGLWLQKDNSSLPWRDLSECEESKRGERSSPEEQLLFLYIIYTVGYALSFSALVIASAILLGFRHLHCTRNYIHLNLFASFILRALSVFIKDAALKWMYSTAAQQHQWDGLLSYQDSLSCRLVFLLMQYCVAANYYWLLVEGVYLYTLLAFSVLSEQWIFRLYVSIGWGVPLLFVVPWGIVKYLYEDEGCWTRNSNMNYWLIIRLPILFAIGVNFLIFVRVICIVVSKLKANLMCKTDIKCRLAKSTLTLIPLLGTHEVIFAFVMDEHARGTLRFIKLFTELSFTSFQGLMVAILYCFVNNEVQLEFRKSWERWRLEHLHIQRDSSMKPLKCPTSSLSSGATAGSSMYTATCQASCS

This assay addresses GLP-1 Receptor (Homo sapiens, UniProt P43220). Description: GLP-1R agonist cAMP stimulation assay. Type of assay: cell-based. Conditions: HEK293/GLP1R/CRE-LUC cells stably expressing the GLP-1 Receptor; cAMP dynamic 2 Kit (Cisbio); 30 min at 37° C. Here is the method: Activation of GLP-1 receptor is known to stimulate cyclic AMP (cAMP) production in cells which indicates primary coupling to the G as subunit of the G protein heterotrimeric complex.
To optimize functional activity directed toward G as coupling, a HEK293/CRE-Luc cell line developed by HDB stably expressing the GLP-1 Receptor was used. 200× concentration of compound working solutions were prepared (Agilent Technologies Bravo) with ½ log serial dilution in 384-well Echo LDV plate (Labcyte, Cat #LP-0200). 50 nL/well 200× concentration of compound working solutions were moved to 384-well white low volume plate (Greiner, Cat #784075) using Labcyte ECHO550.1×10^5 cells/mL HEK293/GLP1R/CRE-LUC (HD Biosciences) cell suspensions prepared with assay buffer [DPBS containing 0.5 mM IBMX (Sigma, Cat #I5879) and 0.1% BSA (GENVIEW, Cat #FA016-100 g)], 10 μL cell suspensions were added to each well of previous generated assay plate which already contains 50 nL compound at 200× concentration using ThermoFisher Multidrop Combi (1000 cells/well). Seal the plate and incubate at 37° C. with 5% CO2 for 30 min.
After incubation the cAMP assay signal was generated using cAMP dynamic 2 Kit (Cisbio). 5 μL cAMP-d2 working solution was added to each well, followed with 5 μL Anti-cAMP antibody-cryptate working solution added to each well using ThermoFisher Multidrop Combi. Incubate at room temperature for 1 hour protected from light. Read the fluorescence at 665 and 615 nm with Reader PerkinElmer EnVision.
`O=C(O)c1ccc2nc(CN3CCC(c4cccc5c4OC[C@@H](c4ccc(Cl)c6ccoc46)O5)CC3)n(C[C@@H]3CCO3)c2c1` [Compound 101] yielded an EC50 of 0.024 nM.

`O=C(O)c1ccc2nc(CN3CCC(c4cccc5c4OC[C@@H](c4ccc6cnn(CC(F)F)c6c4)O5)CC3)n(C[C@@H]3CCO3)c2c1` [Compound 102, 2-({4-[(2R)-2-[1-(2,2-difluoroethyl)-1H-indazol-6-yl]-2,3-dihydro-1,4-benzodioxin-5-yl]piperidin-1-yl}methyl)-1-{[(2S)-oxetan-2-yl]methyl}-1H-1,3-benzodiazole-6-carboxylic acid] showed an EC50 of 0.065 nM.

`N#Cc1ccc([C@@H]2COc3c(cccc3C3CCN(Cc4nc5ccc(C(=O)O)c(F)c5n4C[C@@H]4CCO4)CC3)O2)cc1` [Compound 103] yielded a 50% effective concentration (EC50) of 0.057 nM.

Consider `N#Cc1ccc([C@@H]2COc3c(cccc3C3CCN(Cc4nc5c(F)cc(C(=O)O)cc5n4C[C@@H]4CCO4)CC3)O2)cc1` [Compound 104, 2-({4-[(2R)-2-(4-cyanophenyl)-2,3-dihydro-1,4-benzodioxin-5-yl]piperidin-1-yl}methyl)-4-fluoro-1-{[(2S)-oxetan-2-yl]methyl}-1H-1,3-benzodiazole-6-carboxylic acid], for which a half-maximal response (EC50) required 0.027 nM.

Compound `CCn1cncc1Cn1c(CN2CCC(c3cccc4c3OC[C@@H](c3ccc(C#N)cc3)O4)CC2)nc2ccc(C(=O)O)cc21` [Compound 105] returned an EC50 of 0.012 nM. Compared with the last compound, the EC50 is about 2.2-fold lower.

In turn, `N#Cc1ccc([C@@H]2COc3c(cccc3C3CCN(Cc4nc5ccc(C(=O)O)cc5n4CC4CCOC4)CC3)O2)cc1` (stereo partly drawn) [Compound 106, 2-({4-[(2R)-2-(4-cyanophenyl)-2,3-dihydro-1,4-benzodioxin-5-yl]piperidin-1-yl}methyl)-1-[(oxolan-3-yl)methyl]-1H-1,3-benzodiazole-6-carboxylic acid] gave an EC50 of 1.6 nM.

In the case of `N#Cc1ccc([C@@H]2COc3c(cccc3C3CCN(Cc4nc5ccc(C(=O)O)cc5n4CC4(C#N)CC4)CC3)O2)cc1` [Compound 107], the EC50 came to 0.18 nM.

With `N#Cc1ccc([C@@H]2COc3c(cccc3C3CCN(Cc4nc5c(F)cc(C(=O)O)c(F)c5n4C[C@@H]4CCO4)CC3)O2)cc1` [Compound 108, 2-({4-[(2R)-2-(4-cyanophenyl)-2,3-dihydro-1,4-benzodioxin-5-yl]piperidin-1-yl}methyl)-4,7-difluoro-1-{[(2S)-oxetan-2-yl]methyl}-1H-1,3-benzodiazole-6-carboxylic acid], the EC50 amounted to 0.025 nM.

For the compound `C[C@H]1CC(c2cccc3c2OC[C@@H](c2ccc(C#N)cc2)O3)CCN1Cc1nc2c(F)cc(C(=O)O)cc2n1C[C@@H]1CCO1` (stereo partly drawn) [Compound 109], the response was half-maximal at 0.041 nM (EC50).

In turn, `N#Cc1ccc([C@@H]2COc3c(cccc3C34CCN(Cc5nc6ccc(C(=O)O)cc6n5C[C@@H]5CCO5)CC3C4)O2)cc1` (stereo partly drawn) [Compound 110, 2-({6-[(2R)-2-(4-cyanophenyl)-2,3-dihydro-1,4-benzodioxin-5-yl]-3-azabicyclo[4.1.0]heptan-3-yl}methyl)-1-{[(2S)-oxetan-2-yl]methyl}-1H-1,3-benzodiazole-6-carboxylic acid] came in with a half-maximal effective concentration (EC50) of 100 nM. Compared with the last compound, the EC50 is about 2400-fold higher.

As for `O=C(O)c1cc(F)c2nc(CN3CCC(c4cccc5c4OC[C@@H](c4ccc(Cl)cc4)O5)CC3)n(C[C@@H]3CCO3)c2c1` [Compound 111, 2-({4-[(2R)-2-(4-chlorophenyl)-2,3-dihydro-1,4-benzodioxin-5-yl]piperidin-1-yl}methyl)-4-fluoro-1-{[(2S)-oxetan-2-yl]methyl}-1H-1,3-benzodiazole-6-carboxylic acid], the EC50 came to 0.017 nM. This EC50 is about 5900-fold lower than that of the compound before.

In the case of `N#CCC1(Cn2c(CN3CCC(c4cccc5c4OC[C@@H](c4ccc(C#N)cc4)O5)CC3)nc3c(F)cc(C(=O)O)cc32)CC1` [Compound 112], the EC50 was determined as 0.026 nM.

Compound `CC(=O)N1C[C@H](F)C[C@@H]1Cn1c(CN2CCC(c3cccc4c3OC[C@@H](c3ccc(C#N)cc3)O4)CC2)nc2ccc(C(=O)O)cc21` [Compound 113] showed an EC50 of 4 nM. This EC50 lies about 150-fold higher than the previous one.

Compound `CO[C@@H]1COC[C@@H]1n1c(CN2CCC(c3cccc4c3OC[C@@H](c3ccc(C#N)cc3)O4)CC2)nc2ccc(C(=O)O)cc21` [Compound 114, 2-({4-[(2R)-2-(4-cyanophenyl)-2,3-dihydro-1,4-benzodioxin-5-yl]piperidin-1-yl}methyl)-1-[(3S,4S)-4-methoxyoxolan-3-yl]-1H-1,3-benzodiazole-6-carboxylic acid] yielded an EC50 of 0.024 nM.

On to `O=C(O)c1cc(F)c2nc(CN3CCC(c4cccc5c4OC[C@@H](c4ccc(C(F)F)cc4)O5)CC3)n(C[C@@H]3CCO3)c2c1` [Compound 115], for which the EC50 is 0.055 nM.

For `O=C(O)c1cc(F)c2nc(CN3CCC(c4cccc5c4OC[C@@H](c4ccc(C(F)(F)F)cc4)O5)CC3)n(C[C@@H]3CCO3)c2c1` [Compound 116], the response was half-maximal at 0.029 nM (EC50).

`O=C(O)c1ccc2nc(CN3CC=C(c4cccc5c4OC[C@@H](c4ccc6cnn(CC(F)F)c6c4)O5)CC3)n(C[C@@H]3CCO3)c2c1` [Compound 117] had an EC50 of 0.42 nM.

Turning to `COc1cc(C(=O)O)cc2c1nc(CN1CCC(c3cccc4c3OC[C@@H](c3ccc(C#N)cc3)O4)CC1)n2C[C@@H]1CCO1` [Compound 118, 2-({4-[(2R)-2-(4-cyanophenyl)-2,3-dihydro-1,4-benzodioxin-5-yl]piperidin-1-yl}methyl)-4-methoxy-1-{[(2S)-oxetan-2-yl]methyl}-1H-1,3-benzodiazole-6-carboxylic acid], the half-maximal effective concentration (EC50) was determined as 0.011 nM.

The compound `COc1cc(C(=O)O)cc2c1nc(CN1CCC(c3cccc4c3OC[C@@H](c3ccc(Cl)cc3)O4)CC1)n2C[C@@H]1CCO1` [Compound 119, 2-({4-[(2R)-2-(4-chlorophenyl)-2,3-dihydro-1,4-benzodioxin-5-yl]piperidin-1-yl}methyl)-4-methoxy-1-{[(2S)-oxetan-2-yl]methyl}-1H-1,3-benzodiazole-6-carboxylic acid] displayed an EC50 of 0.011 nM.

For `COc1cc(C(=O)O)cc2c1nc(CN1CCC(c3cccc4c3OC[C@@H](c3ccc(Cl)c5ccoc35)O4)CC1)n2C[C@@H]1CCO1` [Compound 120, 2-({4-[(2R)-2-(4-chloro-1-benzofuran-7-yl)-2,3-dihydro-1,4-benzodioxin-5-yl]piperidin-1-yl}methyl)-4-methoxy-1-{[(2S)-oxetan-2-yl]methyl}-1H-1,3-benzodiazole-6-carboxylic acid], the EC50 turned out to be 0.005 nM. This EC50 lies about 2.2-fold lower than the previous one.

Compound `O=C(O)c1cc(F)c2nc(CN3CCC(c4cccc5c4OC[C@@H](c4ccc(Cl)cc4)O5)CC3)n(C[C@@H]3CCO3)c2c1F` [Compound 121] came in with a half-maximal effective concentration (EC50) of 0.031 nM. This EC50 is about 6.2-fold higher than that of the compound before.

In turn, `O=C(O)c1cc(F)c2nc(CN3CCC(c4cccc5c4OC[C@@H](c4ccc(Cl)c6ccoc46)O5)CC3)n(C[C@@H]3CCO3)c2c1` [Compound 122, 2-({4-[(2R)-2-(4-chloro-1-benzofuran-7-yl)-2,3-dihydro-1,4-benzodioxin-5-yl]piperidin-1-yl}methyl)-4-fluoro-1-{[(2S)-oxetan-2-yl]methyl}-1H-1,3-benzodiazole-6-carboxylic acid] registered an EC50 of 0.0012 nM.

`CO[C@H]1COC[C@H]1n1c(CN2CCC(c3cccc4c3OC[C@@H](c3ccc(Cl)cc3)O4)CC2)nc2c(F)cc(C(=O)O)cc21` [Compound 123] showed an EC50 of 1.9 nM.

Compound `COc1cc(C(=O)O)cc2c1nc(CN1CCC(c3cccc4c3OC[C@@H](c3ccc(C#N)cc3)O4)CC1)n2[C@@H]1COC[C@@H]1OC` [Compound 124] had an EC50 of 0.68 nM.

`O=C(O)c1ccc2nc(CN3CC=C(c4cccc5c4OC[C@@H](c4ccc(Cl)cc4)O5)CC3)n(C[C@@H]3CCO3)c2c1` [Compound 125]: the EC50 turned out to be 0.77 nM.

Compound `CC1=C(c2cccc3c2OC[C@@H](c2ccc(Cl)cc2)O3)CCN(Cc2nc3ccc(C(=O)O)cc3n2C[C@@H]2CCO2)C1` [Compound 126] came in with an EC50 of 1.6 nM.

`O=C(O)c1ccc2nc(CN3CCC4(c5cccc6c5OC[C@@H](c5ccc(Cl)cc5)O6)CC4C3)n(C[C@@H]3CCO3)c2c1` (stereo partly drawn) [Compound 127] showed a concentration giving a half-maximal response (EC50) of 500 nM.

`O=C(O)c1ccc2nc(CN3CCC(c4nccc5c4OC[C@@H](c4ccc(Cl)cc4)O5)CC3)n(C[C@@H]3CCO3)c2c1` [Compound 128]: a half-maximal effect (EC50) was put at 0.79 nM.

Regarding `O=C(O)c1ccc2nc(CN3CCC(c4c(F)ccc5c4OC[C@@H](c4ccc(Cl)cc4)O5)CC3)n(C[C@@H]3CCO3)c2c1` [Compound 129, 2-[[4-[(2R)-2-(4-chlorophenyl)-6-fluoro-2,3-dihydro-1,4-benzodioxin-5-yl]-1-piperidyl]methyl]-3-[[(2S)-oxetan-2-yl]methyl]benzimidazole-5-carboxylic acid], the half-maximal effective concentration (EC50) was 0.38 nM.

`O=C(O)c1ccc2nc(CN3CCC(c4ccnc5c4OC[C@@H](c4ccc(Cl)cc4)O5)CC3)n(C[C@@H]3CCO3)c2c1` [Compound 130, 2-((4-((R)-3-(4-chlorophenyl)-2,3-dihydro-[1,4]dioxino[2,3-b]pyridin-8-yl)piperidin-1-yl)methyl)-1-(((S)-oxetan-2-yl)methyl)-1H-benzo[d]imidazole-6-carboxylic acid] had an EC50 of 0.16 nM. This EC50 is about 2.4-fold lower than that of the compound before.

Source of the values: patent publication US20260209212A1, “HETEROCYCLIC GLP-1 AGONISTS” (Gasherbrum Bio, Inc., priority 2022, published 2026).
